Here are results for one compound from patent US9080154B1, “Cancer stem cell survivor lines” (BOWLING GREEN STATE UNIVERSITY, priority 2012, dated 2015).

The structures appear in SMILES notation.

Experiment [1] has as its system KY-10 cell line. In words: crystal violet assay, cells remaining after curcumin. It counts as cell-based, human. To be noted: 30 hrs, concentration that kills half the cells. The protocol: (§1) To determine the effect of different doses of curcumin on the ESCC lines, each cell line was plated in 24-well plates (Corning) at a density of 5×10^4 cells/well in complete DMEM, and incubated at 37° C. Curcumin (Sigma-Aldrich, St Louis, Mo.) was dissolved in dimethyl sulfoxide (DMSO) to make a stock solution of 20 mM curcumin. For each experiment, stock solution was diluted to the final concentrations (20, 30, 40, 60 and 80 μM) in complete DMEM. Twenty-four hours after plating, the wells were washed with PBS once, and 1 ml of each curcumin dosage was added (4 wells/dosage) and incubated for 30 hrs. Four other wells received complete DMEM or complete DMEM with 0.2% DMSO as controls. The inhibition of cell growth in response to curcumin treatment was assayed with the crystal violet staining assay according to a standard protocol. Briefly, the cells in each well were washed once with PBS, stained with 200 μl crystal violet in 50% ethanol (10 mg/ml), and incubated at room temperature for 10 min. The crystal violet was then removed and the wells were washed two times with distilled water, and 600 μl of 1% sodium dodecylsulfate (SDS) in water was added to each well. The plates were maintained overnight at room temperature on a shaker to dissolve the dye. Absorbance was read at 490 nm using a Wallac Victor 1420 Multilabel plate reader (Perkin Elmer, Waltham, Mass.). The background readings from the SDS solution were subtracted from each reading and the percentage of cells remaining after curcumin treatment was calculated. The results were plotted in OriginPro 7.5 (OriginLab) and analyzed by ANOVA.
(§2) To assess the sensitivity of the six human ESCC lines to curcumin, the cell lines (TE-1, TE-8, KY-5, KY-10, YES-1, and YES-2) were plated in 24-well plates for 24 hrs and then exposed to 20, 30, 40, 60, and 80 μM curcumin and to 0.2% DMSO as a control for 30 hrs. The resulting cell density was determined by standard crystal violet assay. The cell density remaining after the treatment is shown in the dose-response curve (FIG. 2). […] However, KY-5 had the highest percentage of cells remaining at the highest curcumin concentration, and the YES-2 cell line had the lowest percentage of cells remaining. When the cell lines were ranked from low to high according to their sensitivity to 60 μM curcumin the order was: KY-5, YES-1, TE-8, TE-1, KY-10, and YES-2.

Experiment [2] concerns KY-5 cell line. The experiment is described as above. The experiment is classed as cell-based, human. To be noted: 30 hrs. The method, then:
as §1, §2

For experiment [3], the system named is YES-2 cell line. The description is as above. The experiment is classed as cell-based, human. To be noted: 30 hrs. The protocol:
as §1, §2

The subject of experiment [4] is six human ESCC lines (TE-1, TE-8, KY-5, KY-10, YES-1, YES-2). The experiment is described as above. The experiment is classed as cell-based. As to conditions: 20-80 μM curcumin, 30 hrs; all six ESCC lines. The protocol: as §1, with “The inhibition of cell growth in response to curcumin treatment was assayed with the crystal violet staining assay according to a standard protocol. Briefly, the cells in each well were washed once with PBS, stained with 200 μl crystal violet in 50% ethanol (10 mg/ml), and incubated at room temperature for 10 min. The crystal violet was then removed and the wells were washed two times with distilled water, and 600 μl of 1% sodium dodecylsulfate (SDS) in water was added to each well. The plates were maintained overnight at room temperature on a shaker to dissolve the dye.” left out
To assess the sensitivity of the six human ESCC lines to curcumin, the cell lines (TE-1, TE-8, KY-5, KY-10, YES-1, and YES-2) were plated in 24-well plates for 24 hrs and then exposed to 20, 30, 40, 60, and 80 μM curcumin and to 0.2% DMSO as a control for 30 hrs. The resulting cell density was determined by standard crystal violet assay. […]

Experiment [5] concerns KY-10 cell line. In words: surviving colonies after curcumin treatment. It counts as cell-based, human. To be noted: 60 μM curcumin, 30 hrs. The method, then:
(§3) To select for a curcumin-surviving cell subpopulation, each of the ESCC cell lines was cultured in 100-mm dishes (1×10^5 cells/dish) with complete DMEM and incubated at 37° C. until reaching near confluency, approximately 80%. After incubation, the medium was removed and the cells were incubated in complete DMEM containing either 40 or 60 μM curcumin in dissolved in 0.2% DMSO for 30 hrs. After incubation, the medium-containing curcumin was removed and replaced with complete DMEM to allow cells that survived the treatment to grow. After the surviving cells formed colonies (normally four weeks after treatment), the colonies were counted, trypsinized, and passaged. The cell lines that developed were designated the curcumin-surviving cell lines.
(§4) According to the dose-response results, 60 μM curcumin was chosen to select for the curcumin-surviving cell line subpopulations. To establish this subpopulation, 1×10^5 cells from each ESCC lines were plated into a 100 mm tissue culture dishes and incubated until they reached near confluency. The cells were then exposed to 60 μM curcumin for 30 hrs. and the surviving colonies formed were counted. The number of colonies formed after 60 μM curcumin treatment varied among the six cell lines.

The test system of experiment [6] is KY-5 cell line. In words: surviving colonies after curcumin treatment. The experiment is classed as cell-based, human. To be noted: 60 μM curcumin, 30 hrs. The method, then: as §3, §4
Experiment [7] relates to TE-1 cell line. In words: surviving colonies after curcumin treatment. The experiment is classed as cell-based, human. To be noted: 60 μM curcumin, 30 hrs. The protocol:
as §3, §4

For experiment [8], the system named is TE-8 cell line. Kind of experiment: surviving colonies after curcumin treatment. The experiment is classed as cell-based, human. To be noted: 60 μM curcumin, 30 hrs. The method, then:
as §3, §4

Experiment [9] has as its system YES-1 cell line. Kind of experiment: surviving colonies after curcumin treatment. It counts as cell-based, human. As to conditions: 60 μM curcumin, 30 hrs. The method, then:
as §3, §4

Experiment [10] deals with YES-2 cell line. Kind of experiment: surviving colonies after curcumin treatment. The experiment is classed as cell-based, human. To be noted: 30 hrs. The method, then: as §3, §4
Experiment [11] has as its system ALDH1A1. In words: ALDH1A1 immunocytochemistry of curcumin-surviving lines. It counts as cell-based, human. As to conditions: survived 60 μM curcumin. The protocol: as §3
(§5) To assess the expression of the stem cell markers ALDH1A1 and CD44 in both the original ESCC cell lines and the curcumin-surviving cell lines, each line was grown on glass cover slips in complete DMEM. After two days, the cover slips were rinsed with PBS and fixed with methanol for 5 min. The cover slips were then washed three times with PBS, exposed to 0.3% hydrogen peroxide for 3 min and rinsed three times with PBS. […]
(§6) The images of cell cultures immunostained for ALDH1A1 or CD44 were analyzed with ImageJ (NIH) and OriginLab (Microcal) software. […]

Experiment [12] has as its system CD44. Kind of experiment: CD44 immunocytochemistry of curcumin-surviving lines. It counts as cell-based, human. The protocol: as §3, §5, §6
Experiment [13] has as its system ALDH1A1. In words: ALDH1A1 level by ELISA in curcumin-surviving lines. As to conditions: all six surviving lines; t-test p<0.005. The experiment is classed as cell-based, human. The protocol:
(§7) To select for a curcumin-surviving cell subpopulation, each of the ESCC cell lines was cultured in 100-mm dishes (1×10^5 cells/dish) with complete DMEM and incubated at 37° C. until reaching near confluency, approximately 80%. After incubation, the medium was removed and the cells were incubated in complete DMEM containing either 40 or 60 μM curcumin in dissolved in 0.2% DMSO for 30 hrs. After incubation, the medium-containing curcumin was removed and replaced with complete DMEM to allow cells that survived the treatment to grow. After the surviving cells formed colonies (normally four weeks after treatment), the colonies were counted, trypsinized, and passaged. The cell lines that developed were designated the curcumin-surviving cell lines. To determine the level of ALDH1A1 and RelA (p65), the major subunit of transcription factor (NF-κB), on both curcumin-surviving cells and original cell lines, ELISA was performed as described previously. Briefly, each cell line was cultured in 96-well plates (5×10^4 cells/well) and incubated for 24 hrs at 37° C. After incubation, the wells were washed once with PBS and fixed with methanol for 5 min; the wells were then washed twice with PBS. […] The antigen-antibody reactions were measured by determining the optical density (O.D.) at 410 nm using MR-600 microwell plate reader (Dynatech Lab Inc.). The resulting absorbance was analyzed using ANOVA.
Background: An ELISA detects its analyte on a solid surface through an enzyme-linked reagent.

For experiment [14], the system named is RelA (p65), the major subunit of NF-κB. Kind of experiment: NF-κB level by ELISA in curcumin-surviving lines. It counts as cell-based, human. The method, then: as §7, with “PBS. Different dilutions of each antibody (anti-p65, Santa Cruz Biotechnology, SC-109, 200 μg/ml, and anti-ALDH1A1, Proteintech Group, 15910-1-AP, 133 μg/ml) were prepared in complete DMEM (1:50, 1:100, 1:200 and 1:500, 1:1000, 1:2000, respectively). The wells were incubated with 100 μl of each dilution (3 wells/dilution) for 2 hrs at 37° C. After incubation, the wells were washed with PBS three times and incubated with 100 μl/well of galactosidase-conjugated goat anti-rabbit secondary antibody (Southern Biotech, Birmingham, Ala.) (1:500 dilution in complete DMEM) for 2 hrs at 37° C.” for “PBS.”

Setting [15] is: concentration that kills half the cells.

With `COc1cc(/C=C/C(=O)CC(=O)/C=C/c2ccc(O)c(OC)c2)ccc1O` [curcumin], the results for the LD50 entry in [1], in experiment [2] (setting [15]) and in [3] (setting [15]) were “less than 10 μM”, 32 µM and 15 µM, respectively. For the same compound, the “cells remaining after curcumin” value in experiment [2] (80 μM curcumin, crystal violet) is listed as 37%. Besides, the “attached cells remaining after curcumin” value in [3] (80 μM curcumin, crystal violet) amounted to 4%. Besides, the reduction in cells entry in experiment [4] is reported as “reduction in cells in a dosage dependent manner”. For the same compound, the “number of surviving colonies formed” value in [5] is on record as 19; in experiment [6], “too many colonies to count”; in experiment [7] it was 8; in experiment [8], 17; in [9], 25; in [10] (40 μM curcumin) it was 15. The “number of surviving colonies formed” value in experiment [10] (60 μM curcumin) is reported as 0. For the same compound, the “percentage of high ALDH1A1-staining cells in curcumin-surviving line” value stood at 19% in experiment [11] (KY-5S, original lines ranged 11.3% to 55.7%, KY-5 greatest) and 0% in experiment [11] (TE-8S). For the same compound, the “percentage of high CD44-staining cells in curcumin-surviving line” value in experiment [12] (YES-1S, survived 60 μM curcumin, original YES-1 16%) turned out to be 6.5%; in experiment [12] (YES-2S, survived 40 μM curcumin, original YES-2 19%) it was 9.2%. In addition, the “ALDH1A1 level of curcumin-surviving lines compared to original lines” value in experiment [13] is recorded as “lower ALDH1A1 level”. Also, the “NF-κB level of curcumin-surviving lines compared to original lines” value in experiment [14] (KY-5, YES-1 and YES-2 surviving lines, t-test p<0.005) was “lower NF-κB levels”; in experiment [14] (TE-1 and TE-8 surviving lines) it was “increase of NF-κB level”. Further, the “NF-κB level of curcumin-surviving line compared to original line” value in [14] (KY-10 surviving line, t-test p>0.05) is given as “no difference”.
